Laboratory results as given in patent US4801579A, “Novel cystine compounds, their preparation and use” (Bleiberger Bergwerks Union, priority 1986, dated 1989).
Positions of bridges follow the written chain, without caps; N, C: chain ends. Residues, ends and D or L forms follow the SMILES beside them. Chains are numbered I, II in the order given.

What was measured:
[1] = heat treatment (sterilization) of solutions; cited from earlier work
[2] = heat sterilization stability of the novel cystine compounds; assay type: physicochemical; conditions: for instance heating to 120° C. for 5 minutes
Method: So, for instance, infusion solutions are prepared by dissolving the purified peptide and the desired amino acid in distilled water. Mineral salts and other substances may further be added to these solutions. Prior to administration, they must be isotonically adjusted. Up to now, it has not been possible to sterilize such solutions in the usual manner (5 minutes, 120° C., pH 5.5 to 7.5) without the decomposition of the cystine-containing component. The novel peptides according to the invention permit a heat treatment of the above-mentioned infusion solution without the decomposition of the cystine derivative.

[3] = Testing of the water solubility and thermal stability of bis-(acetylglycyl)-L,L-cystine (HPLC after heating on boiling water bath); assay type: physicochemical; conditions: 0.5 g in 100 ml water, pH 6.5, boiling water bath, after 10, 20 and 30 minutes of heating
Method: (§1) 0.5 g bis-(acetylglycyl)-L,L-cystine are dissolved in 50 ml distilled water. The pH is adjusted to 6.5 by the addition of a 1N sodium hydrogen carbonate solution and then diluted with distilled water to a volume of 100 ml. Of this solution, an HPLC chromatogram is made immediately. The solution is then heated on a boiling water bath.

[4] = water solubility of the novel cystine compounds; assay type: physicochemical
Method: as §1

stability to heat sterilization [2]	change of HPLC chromatogram after heating [3]	solubility in water [4]	Compound	resistance to heat treatment / thermal stability [1]
–	–	–	N[C@@H](CSSC[C@H](N)C(=O)O)C(=O)O [L,L-cystine]	stable against heat treatment
–	–	–	N[C@@H](CS)C(=O)O [L-cysteine]	not resistant to heat treatment
stable enough to be heat-sterilizable	does not show any essential changes	well soluble in water	CC(=O)NCC(=O)N[C@@H](CSSC[C@H](NC(=O)CNC(C)=O)C(=O)O)C(=O)O [bis-(acetylglycyl)-L,L-cystine] (I: Ac-Gly-Cys-OH / II: Ac-Gly-Cys-OH; disulfide I:2-II:2)	–
